Results published in patent publication US20230085307A1, “PYRIDAZINONE COMPOUND AND HERBICIDE” (NISSAN CHEMICAL CORPORATION, priority 2019, published 2023).

Legend:
[1] = test system: persian speedwell; test: Test Example 4: herbicidal effect by soil treatment (Table 19, symbol R); format: in vivo, Persian speedwell (Veronica persica); conditions: AAH 320 g/ha
Summary of the method: (§1)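 Pre-emergence style soil spray: seeds under ~1.5 cm sterilized diluvial soil received a uniform coat of emulsion diluted to the predetermined herbicide amount. Greenhouse 25–30° C; readout at week three on previously defined criteria.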

[2] = test system: Italian ryegrass; test: Test Example 4: herbicidal effect by soil treatment (Table 19, symbol K); format: in vivo, Italian ryegrass (Lolium multiflorum); conditions: AAH 320 g/ha
Summary of the method: as §1

[3] = test system: lambsquarters; test: Test Example 4: herbicidal effect by soil treatment (Table 19, symbol O); format: in vivo, lambsquarters (Chenopodium album); conditions: AAH 320 g/ha
Summary of the method: as §1

[4] = test system: persian speedwell; test: Test Example 5: herbicidal effect by foliage application, plastic box (Table 20, symbol R); format: in vivo, Persian speedwell (Veronica persica); conditions: foliage application, AAH 320 g/ha, three weeks after application
Summary of the method: (§2)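 Plants were sown into sterilized diluvial soil under about 1.5 cm cover and kept in a greenhouse at 25° C. to 30° C. Fourteen days on, foliage received an even spray of the diluted emulsion. Herbicidal or crop effect was judged three weeks afterwards.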

[5] = test system: lambsquarters; test: Test Example 5: herbicidal effect by foliage application, plastic box (Table 20, symbol O); format: in vivo, lambsquarters (Chenopodium album); conditions: foliage application, AAH 320 g/ha, three weeks after application
Summary of the method: as §2

[6] = test system: velvetleaf; test: Test Example 5: herbicidal effect by foliage application, plastic box (Table 20, symbol M); format: in vivo, velvetleaf (Abutilon theophrasti); conditions: foliage application, AAH 320 g/ha, three weeks after application
Summary of the method: as §2

[7] = test system: rice flat sedge; test: Test Example 3: herbicidal effect by foliage application, Wagner pot (Table 18, symbol E); format: in vivo, rice flat sedge (Cyperus iria); conditions: 320 g/ha
Summary of the method: (§3)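 Plants were sown in alluvial soil held under 0.1–0.5 cm standing water and grown 14 days in a greenhouse at 25–30 °C. An emulsifiable formulation, water-diluted to the set dose, was then sprayed onto the foliage, and effects were scored three weeks later using previously defined criteria.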

[8] = test system: blackgrass; test: Test Example 5: herbicidal effect by foliage application, plastic box (Table 20, symbol J); format: in vivo, blackgrass (Alopecurus myosuroides); conditions: foliage application, AAH 320 g/ha, three weeks after application
Summary of the method: as §2

[9] = test system: green foxtail; test: Test Example 4: herbicidal effect by soil treatment (Table 19, symbol G); format: in vivo, green foxtail (Setaria viridis); conditions: AAH 320 g/ha
Summary of the method: as §1

[10] = test system: windgrass; test: Test Example 5: herbicidal effect by foliage application, plastic box (Table 20, symbol L); format: in vivo, windgrass (Apera spica-venti); conditions: foliage application, AAH 320 g/ha, three weeks after application
Summary of the method: as §2

[11] = test system: chickweed; test: Test Example 5: herbicidal effect by foliage application, plastic box (Table 20, symbol P); format: in vivo, common chickweed (Stellaria media); conditions: foliage application, AAH 320 g/ha, three weeks after application
Summary of the method: as §2

[12] = test system: southern crabgrass; test: Test Example 4: herbicidal effect by soil treatment (Table 19, symbol F); format: in vivo, southern crabgrass (Digitaria ciliaris); conditions: AAH 320 g/ha
Summary of the method: as §1

[13] = test system: chickweed; test: Test Example 4: herbicidal effect by soil treatment (Table 19, symbol P); format: in vivo, common chickweed (Stellaria media); conditions: AAH 320 g/ha
Summary of the method: as §1

[14] = test system: Japanese bulrush; test: Test Example 1: herbicidal activity, application before weed generation under submerged conditions (Table 16, symbol B); format: in vivo, Japanese bulrush (Schoenoplectus juncoides); conditions: 320 g/ha applied herbicide
Summary of the method: (§4)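 Submerged Wagner pots (alluvial soil, 4 cm water) sown with weed seeds and planted with 2.5-leaf rice seedlings; emulsifiable concentrate diluted in water applied to water surface on sowing day. Held in greenhouse at 25-30 °C; injury scored 0-5 by herbicidal rate after three weeks.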

[15] = test system: green foxtail; test: Test Example 5: herbicidal effect by foliage application, plastic box (Table 20, symbol G); format: in vivo, green foxtail (Setaria viridis); conditions: foliage application, AAH 320 g/ha, three weeks after application
Summary of the method: as §2

[16] = test system: Italian ryegrass; test: Test Example 5: herbicidal effect by foliage application, plastic box (Table 20, symbol K); format: in vivo, Italian ryegrass (Lolium multiflorum); conditions: foliage application, AAH 320 g/ha, three weeks after application
Summary of the method: as §2

[17] = test system: barnyard grass; test: Test Example 5: herbicidal effect by foliage application, plastic box (Table 20, symbol H); format: in vivo, barnyard grass (Echinochloa crus-galli); conditions: foliage application, AAH 320 g/ha, three weeks after application
Summary of the method: as §2

[18] = test system: windgrass; test: Test Example 4: herbicidal effect by soil treatment (Table 19, symbol L); format: in vivo, windgrass (Apera spica-venti); conditions: AAH 320 g/ha
Summary of the method: as §1

[19] = test system: oval-leafed pondweed; test: Test Example 1: herbicidal activity, application before weed generation under submerged conditions (Table 16, symbol C); format: in vivo, oval-leafed pondweed (Monochoria vaginalis); conditions: 320 g/ha applied herbicide
Summary of the method: as §4

[20] = test system: redroot pigweed; test: Test Example 4: herbicidal effect by soil treatment (Table 19, symbol N); format: in vivo, redroot pigweed (Amaranthus retroflexus); conditions: AAH 320 g/ha
Summary of the method: as §1

[21] = test system: southern crabgrass; test: Test Example 5: herbicidal effect by foliage application, plastic box (Table 20, symbol F); format: in vivo, southern crabgrass (Digitaria ciliaris); conditions: foliage application, AAH 320 g/ha, three weeks after application
Summary of the method: as §2

[22] = test system: late watergrass; test: Test Example 1: herbicidal activity, application before weed generation under submerged conditions (Table 16, symbol A); format: in vivo, late watergrass (Echinochloa oryzicola); conditions: 320 g/ha applied herbicide
Summary of the method: as §4

[23] = test system: velvetleaf; test: Test Example 4: herbicidal effect by soil treatment (Table 19, symbol M); format: in vivo, velvetleaf (Abutilon theophrasti); conditions: AAH 320 g/ha
Summary of the method: as §1

[24] = test system: wild oat; test: Test Example 5: herbicidal effect by foliage application, plastic box (Table 20, symbol I); format: in vivo, wild oat (Avena fatua); conditions: foliage application, AAH 320 g/ha, three weeks after application
Summary of the method: as §2

[25] = test system: barnyard grass; test: Test Example 4: herbicidal effect by soil treatment (Table 19, symbol H); format: in vivo, barnyard grass (Echinochloa crus-galli); conditions: AAH 320 g/ha
Summary of the method: as §1

[26] = test system: redroot pigweed; test: Test Example 5: herbicidal effect by foliage application, plastic box (Table 20, symbol N); format: in vivo, redroot pigweed (Amaranthus retroflexus); conditions: foliage application, AAH 320 g/ha, three weeks after application
Summary of the method: as §2

[27] = test system: false cleavers; test: Test Example 5: herbicidal effect by foliage application, plastic box (Table 20, symbol Q); format: in vivo, false cleavers (Galium spurium); conditions: foliage application, AAH 320 g/ha, three weeks after application
Summary of the method: as §2

[28] = test system: barnyard grass; test: Test Example 3: herbicidal effect by foliage application, Wagner pot (Table 18, symbol H); format: in vivo, barnyard grass (Echinochloa crus-galli); conditions: 320 g/ha
Summary of the method: as §3

[29] = test system: Chinese sprangletop; test: Test Example 3: herbicidal effect by foliage application, Wagner pot (Table 18, symbol D); format: in vivo, chinese sprangletop (Leptochloa chinensis); conditions: 320 g/ha
Summary of the method: as §3

[30] = test system: wild oat; test: Test Example 4: herbicidal effect by soil treatment (Table 19, symbol I); format: in vivo, wild oat (Avena fatua); conditions: AAH 320 g/ha
Summary of the method: as §1

Compound: Cc1nn(C)c(=O)c(-c2c(-c3ccccc3OCC3CC3)sc3ccccc23)c1O [1-113]
- R: persian speedwell, herbicidal effect rating [1]: 5 (Herbicidal rate of 90% or more (almost completely withered))
- K: Italian ryegrass, herbicidal effect rating [2]: 0 (Herbicidal rate of 5% or less (almost no effect))
- O: lambsquarters, herbicidal effect rating [3]: 2 (Herbicidal rate of 20% or more and less than 40%)
- R: persian speedwell, herbicidal effect [4]: 5 (Herbicidal rate of 90% or more (almost completely withered))
- O: lambsquarters, herbicidal effect [5]: 0 (Herbicidal rate of 5% or less (almost no effect))
- M: velvetleaf, herbicidal effect [6]: 3 (Herbicidal rate of 40% or more and less than 70%)
- herbicidal effect on E (rice flat sedge), rating 0-5 [7]: 3 (Herbicidal rate of 40% or more and less than 70%)
- J: blackgrass, herbicidal effect [8]: 3 (Herbicidal rate of 40% or more and less than 70%)
- G: green foxtail, herbicidal effect rating [9]: 1 (Herbicidal rate of 5% or more and less than 20%)
- L: windgrass, herbicidal effect [10]: 2 (Herbicidal rate of 20% or more and less than 40%)
- P: chickweed, herbicidal effect [11]: 5 (Herbicidal rate of 90% or more (almost completely withered))
- F: southern crabgrass, herbicidal effect rating [12]: 2 (Herbicidal rate of 20% or more and less than 40%)
- P: chickweed, herbicidal effect rating [13]: 4 (Herbicidal rate of 70% or more and less than 90%)
- Herbicidal effect on B: Japanese bulrush (grade 0-5) [14]: 0 (Herbicidal rate of 5% or less (almost no effect))
- G: green foxtail, herbicidal effect [15]: 0 (Herbicidal rate of 5% or less (almost no effect))
- K: Italian ryegrass, herbicidal effect [16]: 1 (Herbicidal rate of 5% or more and less than 20%)
- H: barnyard grass, herbicidal effect [17]: 1 (Herbicidal rate of 5% or more and less than 20%)
- L: windgrass, herbicidal effect rating [18]: 0 (Herbicidal rate of 5% or less (almost no effect))
- Herbicidal effect on C: oval-leafed pondweed (grade 0-5) [19]: 0 (Herbicidal rate of 5% or less (almost no effect))
- N: redroot pigweed, herbicidal effect rating [20]: 3 (Herbicidal rate of 40% or more and less than 70%)
- F: southern crabgrass, herbicidal effect [21]: 0 (Herbicidal rate of 5% or less (almost no effect))
- Herbicidal effect on A: late watergrass (grade 0-5) [22]: 3 (Herbicidal rate of 40% or more and less than 70%)
- M: velvetleaf, herbicidal effect rating [23]: 0 (Herbicidal rate of 5% or less (almost no effect))
- I: wild oat, herbicidal effect [24]: 1 (Herbicidal rate of 5% or more and less than 20%)
- H: barnyard grass, herbicidal effect rating [25]: 3 (Herbicidal rate of 40% or more and less than 70%)
- N: redroot pigweed, herbicidal effect [26]: 0 (Herbicidal rate of 5% or less (almost no effect))
- Q: false cleavers, herbicidal effect [27]: 5 (Herbicidal rate of 90% or more (almost completely withered))
- herbicidal effect on H (barnyard grass), rating 0-5 [28]: 4 (Herbicidal rate of 70% or more and less than 90%)
- herbicidal effect on D (Chinese sprangletop), rating 0-5 [29]: 0 (Herbicidal rate of 5% or less (almost no effect))
- I: wild oat, herbicidal effect rating [30]: 1 (Herbicidal rate of 5% or more and less than 20%)
